Type in all cases: in vivo
In one assay the test system is Heliothis virescens. The experiment in a line: Activity against Heliothis virescens (foliar application). Particulars: 144 h, 400 ppm spray on young soya plants, 1st instar caterpillars, 6 days, read-out: percentage reduction in the population and in the feeding damage (% activity). As to the method: Young soya plants are sprayed with an aqueous emulsion spray mixture comprising 400 ppm of active ingredient and, after the spray coating has dried on, populated with 10 caterpillars (1st instar) of Heliothis virescens and introduced into a plastic container. 6 days later, the percentage reduction in the population and in the feeding damage (% activity) are determined by comparing the number of dead caterpillars and the feeding damage between the treated and untreated plants.

A further assay deals with Plutella xylostella. Kind of assay: Activity against Plutella xylostella. The note with it: 72 h, 400 ppm spray on young cabbage plants, 3rd instar caterpillars, 3 days, read-out: percentage reduction in the population and in the feeding damage (% activity). The procedure: Young cabbage plants are sprayed with an aqueous emulsion spray mixture comprising 400 ppm of active ingredient and, after the spray coating has dried on, populated with 10 caterpillars (3rd instar) of Plutella xylostella and introduced into a plastic container. 3 days later, the percentage reduction in the population and in the feeding damage (% activity) are determined by comparing the number of dead caterpillars and the feeding damage between the treated and untreated plants.

The test system of another assay is Spodoptera littoralis. The experiment in a line: Activity against Spodoptera littoralis. The note with it: 72 h, 400 ppm spray on young soya plants, 1st instar caterpillars, 3 days, read-out: percentage reduction in the population and in the feeding damage (% activity). The procedure: Young soya plants are sprayed with an aqueous emulsion spray mixture comprising 400 ppm of active ingredient and, after the spray coating has dried on, populated with 10 caterpillars (1st instar) of Spodoptera littoralis and introduced into a plastic container. 3 days later, the percentage reduction in the population and in the feeding damage (% activity) are determined by comparing the number of dead caterpillars and the feeding damage between the treated and untreated plants.

Assay [1] deals with Frankliniella occidentalis. The experiment in a line: Activity against Frankliniella occidentalis. Particulars: bean leaf discs (6 days) or bean plants (14 days); mixed population. The procedure: Bean leaf discs on agar in petri dishes or bean plants in a spray chamber are treated with diluted test solutions. After drying leaf discs are cut and placed in plastic cups on the surface of an agar layer and infested with mixed population. 6 days (leaf discs) or 14 days (plants) after the infestation, samples are checked for reduction of treated population and compared to the non treated population. In this test, compounds listed in Table P above show good activity. In particular compound T7.1.7 has an activity of over 80%.

The source of these data is patent US8580785B2, “Insecticides” (Syngenta Crop Protection LLC, priority 2005, dated 2013).

For the molecule `Cc1ccc2c(C)c(NC(=O)c3cc(C(F)(F)F)nn3-c3ncccc3Cl)c(C(=O)NC(C)C)cc2n1` [Compound T7.1.7], the inhibition at 400 ppm in the assay on Heliothis virescens, in the assay on Plutella xylostella and in the assay on Spodoptera littoralis was greater than 80% in each case. The “reduction of treated population (activity)” value in assay [1] is on record as “over 80%”.
